# Data: patent publication US20020155192A1, “Yeast transport isoforms” (priority 2000, published 2002)
# Where two headings read alike, the source gives them in different places.
# Columns and labels:
# Type in all cases: biochemical
# Odc1p [1] = biological target: T1, Odc1p (Saccharomyces cerevisiae, UniProt Q03028); assay: Dependence on internal substrate of [14C]oxoglutarate uptake into proteoliposomes reconstituted with recombinant Odc1p; settings: for [14C]oxoglutarate transport: proteoliposomes preloaded with 20 mM internal substrate, 0.6 mM [14C]oxoglutarate, 45 seconds
# T1 construct: made in house; host or cells: S. cerevisiae odc1Δodc2Δ (YPH499 background) carrying pYES2-based pODC1; purified from mitochondria on Ni-NTA agarose
# T1 sequence (Q03028 1-310): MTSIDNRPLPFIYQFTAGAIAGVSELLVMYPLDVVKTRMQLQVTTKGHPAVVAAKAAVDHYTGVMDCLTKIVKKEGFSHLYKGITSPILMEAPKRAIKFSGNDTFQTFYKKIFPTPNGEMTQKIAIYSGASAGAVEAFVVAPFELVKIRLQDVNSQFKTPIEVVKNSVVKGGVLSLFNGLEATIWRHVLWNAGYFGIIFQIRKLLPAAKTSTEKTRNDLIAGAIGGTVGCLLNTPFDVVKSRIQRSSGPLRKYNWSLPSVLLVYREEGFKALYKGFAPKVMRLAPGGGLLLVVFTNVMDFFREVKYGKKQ
# Protocol: (§1) Reconstitution of the ODC proteins into liposomes—Purified ODC proteins were reconstituted by cyclic removal of the detergent with a hydrophobic column (13). The composition of the initial mixture used for reconstitution was: 200 μl of purified isoform (0.3-0.4 μg of protein), 70 μl of 10% Triton X-114, 100 μl of 10% phospholipids in the form of sonicated liposomes, 20 mM oxoglutarate (except where otherwise indicated), 10 mM Pipes (pH 7.0), 0.7 mg of cardiolipin (Sigma) and water to a final volume of 700 μl. These components were mixed thoroughly, and the mixture was recycled 13 times through an Amberlite column (Supelco) (3.0 cm×0.5 cm) preequilibrated with a buffer containing 10 mM Pipes (pH 7.0) and with the substrate at the same concentration as in the starting mixture. All operations were performed at 4° C., except the passages through Amberlite, which were carried out at room temperature.
# (§2) External substrate was removed from proteoliposomes on a Sephadex G-75 column preequilibrated with buffer F (50 mM NaCl and 10 mM PIPES, pH 7.0). Transport at 25° C. was started by adding [^14C]oxoglutarate (unless otherwise indicated) to the proteoliposomes, and terminated by addition of 30 mM pyridoxal 5′-phosphate and 10 mM bathophenanthroline (the “inhibitor-stop” method (13)). In controls, inhibitors were added with the labelled substrate. The external radioactivity was removed on Sephadex G-75 and the internal radioactivity was measured. […] The initial rate of transport was calculated in mmol/min per g protein from the time course of isotope equilibration (13). Various other transport activities were also assayed by the inhibitor-stop method. For efflux measurements, the internal substrate pool of the proteoliposomes was made radioactive by carrier-mediated exchange equilibration (13) with 0.1 mM [^14C]oxoglutarate added at high specific radioactivity. After 60 min, the residual external radioactivity was removed by passing the proteoliposomes again through a column of Sephadex G-75. Efflux was started by adding unlabelled external substrate or buffer F alone and terminated by adding the inhibitors indicated above.
# (§3) The substrate specificity of purified Odc1p and Odc2p was investigated further by measuring the uptake of [^14C]oxoglutarate into proteoliposomes which had been preloaded with various substrates.
# (§4) Proteoliposomes were preloaded internally with various substrates (concentration, 20 mM). Transport was started by adding [^14C]oxoglutarate (final concentration, 0.6 mM) and terminated after 45 seconds.
# Odc2p [2] = biological target: T2, Odc2p (Saccharomyces cerevisiae, UniProt Q99297); assay: Dependence on internal substrate of [14C]oxoglutarate uptake into proteoliposomes reconstituted with recombinant Odc2p; settings: for [14C]oxoglutarate transport: proteoliposomes preloaded with 20 mM internal substrate, 0.6 mM [14C]oxoglutarate, 45 seconds
# T2 construct: made in house; host or cells: S. cerevisiae odc1Δodc2Δ (YPH499 background) carrying pYES2-based pODC2; purified from mitochondria on Ni-NTA agarose
# T2 sequence (Q99297 1-307): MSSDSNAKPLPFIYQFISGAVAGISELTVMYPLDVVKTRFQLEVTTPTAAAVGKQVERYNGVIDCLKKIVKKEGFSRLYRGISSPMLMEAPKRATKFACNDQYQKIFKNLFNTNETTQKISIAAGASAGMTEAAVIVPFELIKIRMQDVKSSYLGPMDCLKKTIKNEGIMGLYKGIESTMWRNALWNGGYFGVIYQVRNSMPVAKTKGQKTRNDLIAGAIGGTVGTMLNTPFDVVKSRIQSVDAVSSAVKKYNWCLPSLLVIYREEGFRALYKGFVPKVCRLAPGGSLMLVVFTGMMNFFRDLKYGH
# Protocol: as §1, §2, §3, §4
# Odc1p [3] = biological target: T1, Odc1p; assay: Effect of inhibitors and external compounds on the [14C]oxoglutarate/oxoglutarate exchange by proteoliposomes reconstituted with Odc1p; settings: Odc1p; for effect of non-radioactive potential substrates on the rate of oxoglutarate uptake (in words): added with 0.4 mM [14C]oxoglutarate, 4.0 mM in FIG. 5, partly data not shown
# Protocol: FIG. 5. Effect of dicarboxylates and 2-oxodicarboxylates with different carbon chain length on the rate of [^14C]oxoglutarate uptake into proteoliposomes reconstituted with recombinant Odc1p. Proteoliposomes were preloaded with 20 mM oxoglutarate and reconstituted with recombinant Odc1p. Transport was initiated by the addition of 0.4 mM [^14C]oxoglutarate and terminated after 45 seconds. Oxalate, malonate, succinate, glutarate, adipate, pimelate, suberate (▪) and the corresponding 2-oxoacids (●) were added simultaneously with [1^4C]oxoglutarate at 4.0 mM concentration.
# as §1, §2
# (§5) In addition, the ability of non-radioactive potential substrates to inhibit the oxoglutarate/oxoglutarate exchange was examined.
# Proteoliposomes were preloaded internally with 20 mM oxoglutarate and transport was initiated by the addition of 0.4 mM [^14C]oxoglutarate.
# Odc2p [4] = biological target: T2, Odc2p; assay: Effect of inhibitors and external compounds on the [14C]oxoglutarate/oxoglutarate exchange by proteoliposomes reconstituted with Odc2p; settings: Odc2p, data not shown
# Protocol: as §1, §2, §5
# Proteoliposomes were preloaded internally with 20 mM oxoglutarate and transport was initiated by the addition of 0.4 mM [^14C]oxoglutarate. The incubation time was 45 seconds. Thiol reagents and α-cyanocinnamate were added 2 min before the labelled substrate; the other inhibitors and external substrates were added together with [^14C]oxoglutarate. The final concentration of the inhibitors was 4 mM, except for mercurials (10 μM), carboxyatractyloside (0.1 mM), N-ethylmaleimide and α-cyanocinnamate (2 mM).
# Odc1p [5] = biological target: T1, Odc1p; assay: Homoexchange of other substrates in proteoliposomes reconstituted with Odc1p; settings: internal concentration 10 mM, external concentration 1 mM
# Protocol: as §2
# (§6) In order to obtain further information about the mechanism of transport catalyzed by Odc1p and Odc2p, the efflux of [^14C]oxoglutarate from pre-labelled active proteoliposomes was investigated as it provides a more convenient assay for unidirectional transport (13).
# Odc2p [6] = biological target: T2, Odc2p; assay: Homoexchange of other substrates in proteoliposomes reconstituted with Odc2p; settings: internal concentration 10 mM, external concentration 1 mM
# Protocol: as §2, §6
# Odc1p [7] = biological target: T1, Odc1p; assay: Kinetic constants (Km, Vmax, Ki) of recombinant purified Odc1p in proteoliposomes
# Protocol: as §2
# (§7) The kinetic constants of the recombinant purified Odc1p and Odc2p were determined by measuring the initial transport rate at various external [^14C]oxoglutarate concentrations, in the presence of a constant saturating internal concentration of 20 mM oxoglutarate.
# (§8) The values were calculated from Lineweaver-Burk plots of the rate of [^14C]oxoglutarate versus substrate concentrations. The competing substrates at appropriate constant concentrations were added together with 0.1-2.0 mM [^14C]oxoglutarate to proteoliposomes containing 20 mM oxoglutarate and reconstituted with recombinant Odc1p or Odc2p. The data represent the means ±S.D. of at least three different experiments. n.d., not determined.
# Odc2p [8] = biological target: T2, Odc2p; assay: Kinetic constants (Km, Vmax, Ki) of recombinant purified Odc2p in proteoliposomes
# Protocol: as §2, §7, §8
# [9] = Odc1p, proteoliposomes preloaded with various substrates
# [10] = Odc2p, proteoliposomes preloaded with various substrates
# [11] = Odc1p, Lineweaver-Burk plots, 0.1-2.0 mM [14C]oxoglutarate, 20 mM internal oxoglutarate, means ±S.D., read-out: Ki (competition with [14C]oxoglutarate uptake)
# [12] = Odc2p, Lineweaver-Burk plots, 0.1-2.0 mM [14C]oxoglutarate, 20 mM internal oxoglutarate, means ±S.D., read-out: Ki (competition with [14C]oxoglutarate uptake)
# [13] = read-out: transport affinity (Km) for the oxoglutarate/oxoglutarate exchange
Compound,[14C]oxoglutarate uptake with the internal substrate (in words) (Odc1p [1]; [9]),[14C]oxoglutarate uptake with the internal substrate (in words) (Odc2p [2]; [10]),homoexchange catalyzed by the proteoliposomes (in words) (Odc1p [5]),homoexchange catalyzed by the proteoliposomes (in words) (Odc2p [6]),[14C]oxoglutarate transport (Odc1p [1]; Odc1p) [mmol/min per g protein],[14C]oxoglutarate transport (Odc2p [2]; Odc2p) [mmol/min per g protein],Ki (Odc1p [7]; [11]) [mM],Ki (Odc2p [8]; [12]) [mM],further results
NC(=O)CC[C@H](N)C(=O)O [glutamine],no exchange,no exchange,did not catalyze homoexchanges,did not catalyze homoexchanges,–,–,–,–,effect of non-radioactive potential substrates on the rate of oxoglutarate uptake (in words) (Odc1p [3]): no effect; effect of non-radioactive potential substrates on the rate of oxoglutarate uptake (in words) (Odc2p [4]): no effect
O=C(O)CC(O)(CC(=O)O)C(=O)O [Citrate],much lower activity,much lower activity,–,–,28.6,8.0,–,–,Ki (Odc1p [7]): 6 ± 0.8 mM; Ki (Odc2p [8]): 5.9 ± 0.6 mM
O=C(O)CCCC(=O)C(=O)O [2-Oxoadipate],taken up efficiently,taken up efficiently,–,–,85.0,22.1,0.26 ± 0.03,0.31 ± 0.04,–
O=C(O)CC(=O)C(=O)O [Oxaloacetate],–,–,–,–,–,–,> 15,> 15,–
CC(C)CC(=O)C(=O)O [2-oxoisocaproate],no exchange,no exchange,did not catalyze homoexchanges,did not catalyze homoexchanges,–,–,–,–,"effect of oxomonocarboxylates on the rate of uptake of 0.4 mM oxoglutarate (in words) (Odc1p [3]; 8 mM, 20 times greater than the substrate, data not shown): did not influence; effect of oxomonocarboxylates on the rate of uptake of 0.4 mM oxoglutarate (in words) (Odc2p [4]; 8 mM, 20 times greater than the substrate): did not influence"
O=S(=O)(O)O [sulfate],–,–,did not catalyze homoexchanges,did not catalyze homoexchanges,–,–,–,–,[14C]oxoglutarate uptake with the internal substrate (in words) (Odc1p [1]): no exchange; [14C]oxoglutarate uptake with the internal substrate (in words) (Odc2p [2]): no exchange
Nc1ncnc2c1ncn2[C@@H]1O[C@H](COP(=O)(O)OP(=O)(O)O)[C@@H](O)[C@H]1O [ADP],no exchange,no exchange,did not catalyze homoexchanges,did not catalyze homoexchanges,–,–,–,–,–
O=C(O)CCC(=O)O [Succinate],much lower activity,much lower activity,–,–,19.1,4.3,> 15,–,effect of non-radioactive potential substrates on the rate of oxoglutarate uptake (in words) (Odc1p [3]): virtually no effect; effect of non-radioactive potential substrates on the rate of oxoglutarate uptake (in words) (Odc2p [4]): virtually no effect
O=C(O)CCCCC(=O)C(=O)O [2-Oxopimelate],taken up efficiently,taken up efficiently,–,–,71.6,14.8,1.83 ± 0.2,1.64 ± 0.18,–
O=C(O)C[C@H](O)C(=O)O [L-malate],taken up efficiently,taken up efficiently,–,–,56.4,11.4,1.32 ± 0.13,1.37 ± 0.16,–
O=C(O)CCC(=O)C(=O)O [2-Oxoglutarate],taken up efficiently,–,–,–,112.5,–,–,–,"specific activity (Vmax) for the oxoglutarate/oxoglutarate exchange (Odc1p [7]; Odc1p, 25° C., 20 mM internal oxoglutarate, 24 experiments): 252±53 mmol/min per g protein; Km (Odc1p [7]; [13]): 520 ± 80 µM; specific activity (Vmax) for the oxoglutarate/oxoglutarate exchange (Odc2p [8]; Odc2p, 25° C., 20 mM internal oxoglutarate, 16 experiments): 73±17 mmol/min per g protein; Km (Odc2p [8]; [13]): 470 ± 70 µM"
